Counter-ions that a name gives are not always drawn. Values belong to the compound of their own block, whether it stands above or below them.
Columns and labels:
[1] = biological target: T1, human V-1 receptor (Homo sapiens, UniProt P37288); test: In vitro recombinant vasopressin receptor binding assay (V1 Bdg), displacement of 3H-arginine vasopressin; settings: for inhibition at 0.1 µM: read-out: V1 Bdg (% inh, 0.1 uM)
T1 construct: expressed in transfected cells; host or cells: HEK-293
Outline: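 Membranes from HEK-293 cells bearing cloned human V-1 receptor, incubated 1 h at room temperature with 0.65-0.75 nM 3H-arginine-8-vasopressin in pH 7.5 Tris/MgCl2/BSA buffer with protease inhibitors. Filtration onto GF/C, scintillation count. Non-specific binding with 1.25 uM arginine-8-vasopressin.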

[2] = biological target: V2 (Homo sapiens, UniProt P30518); test: In vitro recombinant vasopressin receptor binding assay (V2 Bdg), displacement of 3H-arginine vasopressin; design: expressed in transfected cells; host or cells: HEK-293; settings: for V2 Bdg % inh: 0.1 uM, printed in parentheses in place of IC50; for IC50: membrane with cloned human V-2 receptor (HEK-293)
Outline: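 Displacement of ³H-vasopressin from membranes of HEK-293 cells bearing cloned human V-2 receptor, incubated with test compound one hour at room temperature. Bound label was collected on PEI-soaked GF/C filters, washed with cold saline/0.05% Tween 20, and counted by scintillation.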

T1 sequence (P37288 whole entry): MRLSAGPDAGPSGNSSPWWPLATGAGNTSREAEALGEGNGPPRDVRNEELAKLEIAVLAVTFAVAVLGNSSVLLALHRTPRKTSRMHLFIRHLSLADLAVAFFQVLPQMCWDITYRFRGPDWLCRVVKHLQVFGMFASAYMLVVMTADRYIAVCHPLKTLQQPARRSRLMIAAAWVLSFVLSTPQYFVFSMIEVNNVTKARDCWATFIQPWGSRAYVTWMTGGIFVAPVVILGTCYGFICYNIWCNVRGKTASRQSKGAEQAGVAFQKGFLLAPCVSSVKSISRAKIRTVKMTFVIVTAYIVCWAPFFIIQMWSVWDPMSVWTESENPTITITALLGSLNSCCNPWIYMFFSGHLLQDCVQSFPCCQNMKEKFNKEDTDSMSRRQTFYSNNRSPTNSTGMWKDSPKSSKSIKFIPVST

Compound: (RS)-2-Phenyl-N-[4-(9-chloro-1,3,4,12a-tetrahydro-6H-[1,4]thiazino[4,3-a][1,4]-benzodiazepin-11(12H)-yl-carbonyl)phenyl]benzamide [Compound 34]
V1 Bdg % inh ([1]; 10 uM): 1%/10 uM
V2 Bdg % inh [2]: (41%/0.1 uM)

Compound: Cc1ccc(-c2ccccc2C(=O)Nc2ccc(C(=O)N3CC4COCCN4Cc4ccccc43)c(F)c2)cc1 (racemic) [Compound 30, (RS)-2-(4-Methyl-phenyl)-N-[3-fluoro-4-(1,3,4,12a-tetrahydro-6H-[1,4]oxazino[4,3-a][1,4]-benzodiazepin-11(12H)-yl-carbonyl)phenyl]benzamide]
inhibition at 0.1 µM [1]: 74%
IC50 [2]: 14 nM

Compound: CN1CCN2Cc3ccccc3N(C(=O)c3ccc(NC(=O)c4cccc(Cl)c4Cl)cc3Cl)CC2C1 (racemic) [Compound 97, (RS)-2,3-Dichloro-N-[3-chloro-4-(1,3,4,12a-tetrahydro-2-methyl-6H-[1,4]pyrazino[4,3-a][1,4]-benzodiazepin-11(12H)-yl-carbonyl)phenyl]benzamide]
V1 Bdg % inh ([1]; 1 uM): (21%/1 uM)
V2 Bdg % inh [2]: (9%/0.1 uM)

Compound: O=C(Nc1ccc(C(=O)N2CC3COCCN3Cc3ccccc32)c(Cl)c1)c1cccc(Cl)c1F (racemic) [Compound 18, (RS)-2-Fluoro-3-chloro-N-[3-chloro-4-(1,3,4,12a-tetrahydro-6H-[1,4]oxazino[4,3-a][1,4]-benzodiazepin-11(12H)-yl-carbonyl)phenyl]benzamide]
inhibition at 0.1 µM [1]: 15%
IC50 [2]: 18 nM

Compound: Cc1c(F)cccc1C(=O)Nc1ccc(C(=O)N2CC3CN(C)CCN3Cc3ccccc32)c(Cl)c1 (racemic) [Compound 102, (RS)-2-Methyl-3-fluoro-N-[3-chloro-4-(1,3,4,12a-tetrahydro-2-methyl-6H-[1,4]pyrazino[4,3-a][1,4]-benzodiazepin-11(12H)-yl-carbonyl)phenyl]benzamide]
V1 Bdg % inh ([1]; 1 uM): (12%/1 uM)
V2 Bdg % inh [2]: (20%/0.1 uM)

Compound: Cc1cc(C(=O)N2CC3CN(C)CCN3Cc3ccccc32)ccc1NC(=O)c1ccccc1-c1ccccc1 (racemic) [Compound 78, (RS)-2-Phenyl-N-[2-methyl-4-(1,3,4,12a-tetrahydro-2-methyl-6H-[1,4]pyrazino[4,3-a][1,4]-benzodiazepin-11(12H)-yl-carbonyl)phenyl]benzamide]
V1 Bdg % inh ([1]; 1 uM): (2%/1 uM)
V2 Bdg % inh [2]: (5%/0.1 uM)

Compound: Cc1ccccc1C(=O)Nc1ccc(C(=O)N2CC3COCCN3Cc3ccccc32)cc1 (racemic) [Compound 26, (RS)-2-Methyl-N-[4-(1,3,4,12a-tetrahydro-6H-[1,4]oxazino[4,3-a][1,4]-benzodiazepin-11(12H)-yl-carbonyl)phenyl]benzamide]
V1 Bdg (% inh, 0.1 uM) ([1]; 0.1 uM): 58%
V2 Bdg % inh [2]: (65%/0.1 uM)

Compound: Cc1ccccc1C(=O)Nc1ccc(C(=O)N2CC3CN(C)CCN3Cc3ccccc32)c(Cl)c1 (racemic) [Compound 61, (RS)-2-Methyl-N-[3-chloro-4-(1,3,4,12a-tetrahydro-2-methyl-6H-[1,4]pyrazino[4,3-a][1,4]-benzodiazepin-11(12H)-yl-carbonyl)phenyl]benzamide]
V1 Bdg % inh ([1]; 1 uM): (21%/1 uM)
V2 Bdg % inh [2]: (28%/0.I uM)

Compound: Cc1csc(-c2cc(F)ccc2C(=O)Nc2ccc(C(=O)N3CC4COCCN4Cc4ccccc43)c(Cl)c2)c1 (racemic) [Compound 9, (RS)-2-(4-Methyl-2-thienyl)-4-fluoro-N-[3-chloro-4-(1,3,4,12a-tetrahydro-6H-[1,4]oxazino[4,3-a][1,4]-benzodiazepin-11(12H)-yl-carbonyl)phenyl]benzamide]
inhibition at 0.1 µM [1]: 18%
IC50 [2]: 11 nM

Compound: Cc1ccccc1C(=O)Nc1ccc(C(=O)N2CC3CN(C)CCN3Cc3ccccc32)cc1 (racemic) [Compound 86, (RS)-2-Methyl-N-[4-(1,3,4,12a-tetrahydro-2-methyl-6H-[1,4]pyrazino[4,3-a][1,4]-benzodiazepin-11(12H)-yl-carbonyl)phenyl]benzamide]
V1 Bdg % inh ([1]; 1 uM): (33%/1 uM)
V2 Bdg % inh [2]: (1%/0.1 uM)

Compound: COc1cccc(-c2ccccc2C(=O)Nc2ccc(C(=O)N3CC4CN(C)CCN4Cc4ccccc43)c(Cl)c2)c1 (racemic) [Compound 68, (RS)-2-(3-Methoxy-phenyl)-N-[3-chloro-4-(1,3,4,12a-tetrahydro-2-methyl-6H-[1,4]pyrazino[4,3-a][1,4]-benzodiazepin-11(12H)-yl-carbonyl)phenyl]benzamide]
V1 Bdg % inh ([1]; 1 uM): (7%/1 uM)
V2 Bdg % inh [2]: (37%/0.1 uM)

Compound: (RS)-2-Phenyl-N-[4-(8,9-dimethoxy-1,3,4,12a-tetrahydro-6H-[1,4]thiazino[4,3-a][1,4]-benzodiazepin-11(12H)-yl-carbonyl)phenyl]benzamide [Compound 33]
V1 Bdg % inh ([1]; 10 uM): 6%/10 uM
V2 Bdg % inh [2]: (19%/0.1 uM)

Now from value to compound:

melting point: 177 to 180 °C
Compound: O=C(Nc1ccc(C(=O)N2CC3CSCCN3Cc3cc(F)ccc32)cc1)c1ccccc1-c1ccccc1 (racemic) (as salt: HCl) [Compound 32, (RS)-2-Phenyl-N-[4-(8-fluoro-1,3,4,12a-tetrahydro-6H-[1,4]thiazino[4,3-a][1,4]-benzodiazepin-11(12H)-yl-carbonyl)phenyl]benzamide]

melting point: 194 to 199 °C
Compound: O=C(Nc1ccc(C(=O)N2CC3CSCCN3Cc3cc(F)c(F)cc32)cc1)c1ccccc1-c1ccccc1 (racemic) (as salt: HCl) [Compound 35, (RS)-2-Phenyl-N-[4-(8,9-difluoro-1,3,4,12a-tetrahydro-6H-[1,4]thiazino[4,3-a][1,4]-benzodiazepin-11(12H)-yl-carbonyl)phenyl]benzamide]

melting point: > 210 °C (dec.)
Compound: O=C(Nc1ccc(C(=O)N2C[C@H]3COCCN3Cc3ccccc32)c(Cl)c1)c1ccccc1-c1ccccc1 (as salt: HCl) (hydrate or solvate) [Compound 4, (S)-2-Phenyl-N-[3-chloro-4-(1,3,4,12a-tetrahydro-6H-[1,4]oxazino[4,3-a][1,4]-benzodiazepin-11(12H)-yl-carbonyl)phenyl]benzamide]

melting point: 191 to 193 °C
Compound: O=C(Nc1ccc(C(=O)N2CC3CCCCN3Cc3ccccc32)cc1)c1ccccc1-c1ccccc1 (stereo not shown) (as salt: HCl) [Compound 1, 10-[4-[[(2-Biphenyl)carbonyl]amino]benzoyl]-10,11-dihydro-5H-piperidino[2,1-c][1,4]benzodiazepine]

melting point: 185 to 188 °C (dec.)
Compound: O=C(Nc1ccc(C(=O)N2CC3COCCN3Cc3ccccc32)c(O)c1)c1ccccc1-c1ccccc1 (racemic) (as salt: HCl) [Compound 23, (RS)-2-Phenyl-N-[3-hydroxy-4-(1,3,4,12a-tetrahydro-6H-[1,4]oxazino[4,3-a][1,4]-benzodiazepin-11(12H)-yl-carbonyl)phenyl]benzamide]

melting point: 192 to 197 °C
Compound: O=C(Nc1ccc(C(=O)N2C[C@H]3CSCCN3Cc3ccccc32)c(Cl)c1)c1ccccc1-c1ccccc1 (as salt: HCl) [Compound 47, (S)-2-Phenyl-N-[3-chloro-4-(1,3,4,12a-tetrahydro-6H-[1,4]thiazino[4,3-a][1,4]-benzodiazepin-11(12H)-yl-carbonyl)phenyl]benzamide]

melting point: 191 to 196 °C
Compound: Cc1ccc2c(c1)CN1CCSCC1CN2C(=O)c1ccc(NC(=O)c2ccccc2-c2ccccc2)cc1 (racemic) (as salt: HCl) [Compound 36, (RS)-2-Phenyl-N-[4-(8-methyl-1,3,4,12a-tetrahydro-6H-[1,4]thiazino[4,3-a][1,4]-benzodiazepin-11(12H)-yl-carbonyl)phenyl]benzamide]

inhibition at 0.1 µM [1]: 8%
IC50 [2]: 47 nM
Compound: CN(C)c1cc(NC(=O)c2ccccc2-c2ccccc2)ccc1C(=O)N1C[C@H]2CSCCN2Cc2ccccc21 [Compound 46, (S)-2-Phenyl-N-[3-dimethylamino-4-(1,3,4,12a-tetrahydro-6H-[1,4]thiazino[4,3-a][1,4]-benzodiazepin-11(12H)-yl-carbonyl)phenyl]benzamide]

inhibition at 10 µM ([1]; 10 uM, read-out: V1 Bdg % inh): 44%
IC50 [2]: 20 nM
Compound: O=C(Nc1ccc(C(=O)N2CC3CSCCN3Cc3cc(F)ccc32)cc1)c1ccccc1-c1ccccc1 (racemic) [Compound 32, (RS)-2-Phenyl-N-[4-(8-fluoro-1,3,4,12a-tetrahydro-6H-[1,4]thiazino[4,3-a][1,4]-benzodiazepin-11(12H)-yl-carbonyl)phenyl]benzamide]

melting point: 188 to 195 °C (dec.)
Compound: O=C(Nc1ccc(C(=O)N2CC3COCCN3Cc3ccccc32)cc1O)c1ccccc1-c1ccccc1 (racemic) (as salt: HCl) [Compound 22, (RS)-2-Phenyl-N-[2-hydroxy-4-(1,3,4,12a-tetrahydro-6H-[1,4]oxazino[4,3-a][1,4]-benzodiazepin-11(12H)-yl-carbonyl)phenyl]benzamide]

inhibition at 0.1 µM [1]: 9%
IC50 [2]: 18 nM
Compound: O=C(Nc1ccc(C(=O)N2CC3CSCCN3Cc3cc(F)ccc32)c(Cl)c1)c1ccccc1-c1ccccc1 (racemic) [Compound 38, (RS)-2-Phenyl-N-[3-chloro-4-(8-fluoro-1,3,4,12a-tetrahydro-6H-[1,4]thiazino[4,3-a][1,4]-benzodiazepin-11 (12H)-yl-carbonyl)phenyl]benzamide]

inhibition at 0.1 µM [1]: 75%
IC50 [2]: 22 nM
Compound: O=C(Nc1ccc(C(=O)N2CC3CSCCN3Cc3cc(Cl)ccc32)cc1)c1ccccc1-c1ccccc1 (racemic) [Compound 37, (RS)-2-Phenyl-N-[4-(8-chloro-1,3,4,12a-tetrahydro-6H-[1,4]thiazino[4,3-a][1,4]-benzodiazepin-11(12H)-yl-carbonyl)phenyl]benzamide]

From patent publication US6713475B2, “Tricyclic benzodiazepines as vasopressin receptor antagonists” (Ortho-McNeil Pharmaceutical, Inc., priority 1999, dated 2004)
